Literature values as cited in patent publication US20050143363A1, “Method for subretinal administration of therapeutics including steroids; method for localizing pharmacodynamic action at the choroid of the retina; and related methods for treatment and/or prevention of retinal diseases” (InnoRx, Inc., priority 2002, published 2005).

Settings: 72 hours after injection into the vitreous; animal studies

For `C[C@]12C=CC(=O)C=C1CC[C@H]1[C@@H]3C[C@@H](O)[C@](O)(C(=O)CO)[C@@]3(C)C[C@H](O)[C@@]12F` [triamcinolone], the “share of the triamcinolone present in the vitreous that was associated with other tissues including the retina, pigment epithelium, and sclera” value is listed as “less than 1%”.
